The results in this text go back to ChEMBL document CHEMBL5257089, “Gamabufotalin Induces Apoptosis and Cytoprotective Autophagy through the mTOR Signaling Pathway in Hepatocellular Carcinoma” (J Nat Prod, 2023).

The subject of experiment [1] is Huh-7. Put plainly: Induction of apoptosis in human Huh-7 cells assessed as late apoptotic cells at 25 nM measured after 48 hrs by annexin V-FITC/Propidium iodide staining based flow cytometric analysis (reference value: 6.1%). Format: functional. (In general: A flow cytometer gives signals particle by particle.)
For experiment [2], the system named is Huh-7. As to the kind of experiment: Induction of apoptosis in human Huh-7 cells assessed as upregulation of cleaved caspase-3 level […] incubated for 48 hrs in presence of 4,6-dimorpholino-N-(4-nitrophenyl)-1,3,5-triazin-2-amine by immunoblot analysis. Type of experiment: functional, cell-based. (A western blot detects proteins with antibodies after separation by electrophoresis.)

Calls of active or inactive are those of the source. The rule behind the calls is not given here.

In the case of `C[C@]12CC[C@H](O)C[C@H]1CC[C@@H]1[C@@H]2[C@H](O)C[C@]2(C)[C@@H](c3ccc(=O)oc3)CC[C@]12O` [GAMABUFOTALIN], the Activity in experiment [1] turned out to be 20.3%. In experiment [2], the result was Active.
